Experimental data: patent publication US9181273B2, “Morpholine-spirocyclic piperidine amides as modulators of ion channels” (Vertex Pharmaceuticals Incorporated, priority 2011, dated 2015)

target: human NaV subtype, like NaV 1.7 (Homo sapiens, UniProt Q15858); assay: E-VIPR optical membrane potential assay with electrical stimulation; assay type: cell-based; conditions: active against one or more sodium channels; assay and NaV subtype not specified for Table 3; read-out: IC50 Binned Activity Data
Sequence (Q15858 whole entry): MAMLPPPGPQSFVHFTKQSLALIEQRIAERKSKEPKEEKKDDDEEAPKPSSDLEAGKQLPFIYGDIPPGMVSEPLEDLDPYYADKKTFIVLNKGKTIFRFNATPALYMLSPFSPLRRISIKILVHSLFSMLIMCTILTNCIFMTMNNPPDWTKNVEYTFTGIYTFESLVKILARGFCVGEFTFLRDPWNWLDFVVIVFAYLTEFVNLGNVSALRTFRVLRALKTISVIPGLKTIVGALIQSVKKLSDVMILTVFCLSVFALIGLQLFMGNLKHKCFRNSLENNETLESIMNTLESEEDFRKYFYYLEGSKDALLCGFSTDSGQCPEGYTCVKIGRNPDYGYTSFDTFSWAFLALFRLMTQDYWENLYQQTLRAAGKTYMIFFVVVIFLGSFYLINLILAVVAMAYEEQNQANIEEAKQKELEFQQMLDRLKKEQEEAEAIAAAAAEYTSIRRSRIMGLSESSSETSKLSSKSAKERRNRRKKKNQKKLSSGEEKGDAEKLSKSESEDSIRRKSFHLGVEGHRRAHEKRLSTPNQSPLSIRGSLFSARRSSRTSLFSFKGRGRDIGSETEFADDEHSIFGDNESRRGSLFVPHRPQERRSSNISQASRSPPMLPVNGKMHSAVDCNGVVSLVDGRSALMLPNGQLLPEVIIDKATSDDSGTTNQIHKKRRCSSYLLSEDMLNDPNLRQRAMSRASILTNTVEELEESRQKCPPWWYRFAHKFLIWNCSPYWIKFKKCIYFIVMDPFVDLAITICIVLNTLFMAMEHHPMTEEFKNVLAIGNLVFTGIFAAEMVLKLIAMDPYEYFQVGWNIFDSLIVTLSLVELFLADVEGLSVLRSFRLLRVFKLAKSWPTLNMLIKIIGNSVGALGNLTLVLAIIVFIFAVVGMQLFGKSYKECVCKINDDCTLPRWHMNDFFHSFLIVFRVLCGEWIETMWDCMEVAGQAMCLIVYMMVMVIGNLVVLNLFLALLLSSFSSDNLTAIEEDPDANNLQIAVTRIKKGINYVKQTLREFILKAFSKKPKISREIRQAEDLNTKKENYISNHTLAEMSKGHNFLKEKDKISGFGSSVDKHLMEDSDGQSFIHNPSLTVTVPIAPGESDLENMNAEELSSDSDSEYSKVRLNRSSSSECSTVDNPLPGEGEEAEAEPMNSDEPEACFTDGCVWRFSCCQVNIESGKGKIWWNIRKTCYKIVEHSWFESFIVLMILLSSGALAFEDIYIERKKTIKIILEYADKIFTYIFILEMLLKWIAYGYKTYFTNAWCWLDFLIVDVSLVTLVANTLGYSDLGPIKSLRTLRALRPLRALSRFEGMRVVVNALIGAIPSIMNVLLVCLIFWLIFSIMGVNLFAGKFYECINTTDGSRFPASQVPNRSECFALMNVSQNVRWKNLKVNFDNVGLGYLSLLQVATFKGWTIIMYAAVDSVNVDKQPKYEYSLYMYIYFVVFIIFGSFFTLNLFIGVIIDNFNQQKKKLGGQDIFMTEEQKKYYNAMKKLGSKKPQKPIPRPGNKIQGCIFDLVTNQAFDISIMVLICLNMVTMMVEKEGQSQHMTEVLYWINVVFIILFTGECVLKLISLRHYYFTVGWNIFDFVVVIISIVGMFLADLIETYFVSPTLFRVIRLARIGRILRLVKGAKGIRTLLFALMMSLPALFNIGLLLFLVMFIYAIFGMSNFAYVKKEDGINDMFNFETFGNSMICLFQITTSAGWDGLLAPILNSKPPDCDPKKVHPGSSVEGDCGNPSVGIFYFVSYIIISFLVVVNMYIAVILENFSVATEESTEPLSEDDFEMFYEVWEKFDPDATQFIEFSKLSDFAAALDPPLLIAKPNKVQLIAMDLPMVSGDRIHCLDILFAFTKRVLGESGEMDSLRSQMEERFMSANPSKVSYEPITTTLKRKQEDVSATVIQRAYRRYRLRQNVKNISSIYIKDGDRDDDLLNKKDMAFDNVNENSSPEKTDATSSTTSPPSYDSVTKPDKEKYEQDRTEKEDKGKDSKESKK

How did the IC50 turn out when `COCC1CN(C2CCC2)CC2(CCN(C(=O)c3ccc(OC(C)C)c(C)c3)CC2)O1` (stereo not drawn) [Compound 285] was run?
The IC50 was under 2000 nM.

How did the IC50 turn out when `COCC1CN(c2ccccc2)CC2(CCN(C(=O)c3ccc(OC(C)C)c(C)c3)CC2)O1` (stereo not drawn) [Compound 286] was run?
Its IC50 is under 2000 nM.

With `COCC1CN(CC2CC2)CC2(CCN(C(=O)c3ccc(OC(C)C)c(C)c3)CC2)O1` (stereo not drawn) [Compound 287] as the compound, how does the IC50 read?
The IC50 was under 2000 nM.

Which IC50 does the source give for `CCC1CN(c2ccccn2)CC2(CCN(C(=O)c3ccc(C4(O)CCCC4)cc3)CC2)O1` (stereo not drawn) [Compound 288] here?
The IC50 was under 2000 nM.

For `Cc1cc(C(=O)N2CCC3(CC2)CN(C(=O)C(C)C)CC(c2ccccc2)O3)ccc1OC(C)C` (stereo not drawn) [Compound 289], which IC50 is on record?
Its IC50 is 2000 to 5000 nM.

For `O=C(c1ccc(C(F)(F)F)cn1)N1CCC2(CC1)CN(CC(F)F)CC(c1ccccc1)O2` (stereo not drawn) [Compound 290], which IC50 is on record?
Its IC50 is over 5000 nM.

`COCC1CN(c2cccnc2)CC2(CCN(C(=O)c3ccc(OC(C)C)c(C)c3)CC2)O1` (stereo not drawn) [Compound 291] was tested. Which IC50 did it give?
Its IC50 is under 2000 nM.

`COC(=O)C(C)(C)c1ccc(C(=O)N2CCC3(CC2)CN(CC(F)(F)F)CC(c2ccccc2)O3)cc1OC` (stereo not drawn) [Compound 292] was tested. Which IC50 did it give?
Its IC50 is 2000 to 5000 nM.

`CCN(CC)C(=O)c1ccc(C(=O)N2CCC3(CC2)CN(CC(F)(F)F)CC(c2ccccc2)O3)cc1F` (stereo not drawn) [Compound 293] was tested. Which IC50 did it give?
Its IC50 is under 2000 nM.

Which IC50 does the source give for `CCC1CN(c2ccccn2)CC2(CCN(C(=O)c3ccc(OC(C)C)c(C)c3)CC2)O1` (stereo not drawn) [Compound 295] here?
Its IC50 is under 2000 nM.

`Cc1cc(C(=O)N2CCC3(CC2)CN(CC(F)F)CC(c2ccccn2)O3)ccc1OCCO` (stereo not drawn) [Compound 296] was tested. Which IC50 did it give?
The IC50 was over 5000 nM.

`COc1cc(C(=O)N2CCC3(CC2)CN(CC(F)F)CC(c2ccccn2)O3)cc(F)c1OC(C)C` (stereo not drawn) [Compound 297] was tested. Which IC50 did it give?
Its IC50 is under 2000 nM.

Which IC50 does the source give for `Cc1cn[nH]c1C1CN(CC(F)F)CC2(CCN(C(=O)c3ccc(OC(C)C)c(F)c3)CC2)O1` (stereo not drawn) [Compound 298] here?
The IC50 was under 2000 nM.

With `O=C(c1cccc(F)c1OC(F)F)N1CCC2(CC1)CN(CC(F)(F)F)CC(c1ccccc1)O2` (stereo not drawn) [Compound 299] as the compound, how does the IC50 read?
The IC50 was over 5000 nM.

For `COCC1CN(c2ncccn2)CC2(CCN(C(=O)c3ccc(C4(O)CCCC4)cc3)CC2)O1` (stereo not drawn) [Compound 300], which IC50 is on record?
Its IC50 is under 2000 nM.

How did the IC50 turn out when `Cc1cc(C(=O)N2CCC3(CC2)CN(CC(F)(F)F)CC(c2ccccc2)O3)ccc1OC(C)C` (stereo not drawn) [Compound 301] was run?
Its IC50 is under 2000 nM.

Which IC50 does the source give for `COCC1CN(C2CCCC2)CC2(CCN(C(=O)c3ccc(OC(C)C)c(C)c3)CC2)O1` (stereo not drawn) [Compound 302] here?
The IC50 was under 2000 nM.

How did the IC50 turn out when `COCC1CN(c2ncccn2)CC2(CCN(C(=O)c3ccc(OC(C)C)c(C#N)c3)CC2)O1` (stereo not drawn) [Compound 303] was run?
The IC50 was under 2000 nM.

`COCC1CN(C2CCC(C(C)C)CC2)CC2(CCN(C(=O)c3ccc(OC(C)C)c(C)c3)CC2)O1` (stereo not drawn) [Compound 304] was tested. Which IC50 did it give?
Its IC50 is under 2000 nM.

How did the IC50 turn out when `Cc1cc(C(=O)N2CCC3(CC2)CN(CC(F)F)CC(c2ccccn2)O3)ccc1OCCCO` (stereo not drawn) [Compound 305] was run?
The IC50 was 2000 to 5000 nM.

With `Cc1cc(C(=O)N2CCC3(CC2)CN(CC(F)F)CC(c2ccn(C)n2)O3)ccc1OC(C)C` (stereo not drawn) [Compound 306] as the compound, how does the IC50 read?
The IC50 was under 2000 nM.

For `CC(C)(O)c1ccc(C(=O)N2CCC3(CC2)CN(CC(F)F)CC(c2ccc(F)cc2)O3)cc1F` (stereo not drawn) [Compound 307], which IC50 is on record?
The IC50 was under 2000 nM.

How did the IC50 turn out when `CCN1CC(c2ccccc2)OC2(CCN(C(=O)c3ccc(OC(C)C)nc3)CC2)C1` (stereo not drawn) [Compound 308] was run?
Its IC50 is over 5000 nM.

Which IC50 does the source give for `Cc1cnc(C2CN(CC(F)(F)F)CC3(CCN(C(=O)c4ccc(OC(C)C)c(C)c4)CC3)O2)o1` (stereo not drawn) [Compound 309] here?
Its IC50 is under 2000 nM.
